Results taken from patent US20240327429A1, “[1,3]Thiazolo[4,5-d]-pyrimidon-7-ones as inhibitors of NOX4” (Boehringer Ingelheim International GmbH, priority 2023, published 2024).

Experiments:
human NOX3 (hNOX3) = molecular target: T1, human NOX3 (hNOX3) (Homo sapiens, UniProt Q9HBY0); assay: NOX3 inhibition assay (L-012), HEK293 cells stably overexpressing human NOX3; format: cell-based; details: HEK293-hNOX3, PMA stimulated
T1 construct: pLV-CMV-hNOX3-puro (NM_015718.3); host or cells: HEK293 (CLS GmbH), lentiviral transduction
T1 sequence (Q9HBY0 1-568): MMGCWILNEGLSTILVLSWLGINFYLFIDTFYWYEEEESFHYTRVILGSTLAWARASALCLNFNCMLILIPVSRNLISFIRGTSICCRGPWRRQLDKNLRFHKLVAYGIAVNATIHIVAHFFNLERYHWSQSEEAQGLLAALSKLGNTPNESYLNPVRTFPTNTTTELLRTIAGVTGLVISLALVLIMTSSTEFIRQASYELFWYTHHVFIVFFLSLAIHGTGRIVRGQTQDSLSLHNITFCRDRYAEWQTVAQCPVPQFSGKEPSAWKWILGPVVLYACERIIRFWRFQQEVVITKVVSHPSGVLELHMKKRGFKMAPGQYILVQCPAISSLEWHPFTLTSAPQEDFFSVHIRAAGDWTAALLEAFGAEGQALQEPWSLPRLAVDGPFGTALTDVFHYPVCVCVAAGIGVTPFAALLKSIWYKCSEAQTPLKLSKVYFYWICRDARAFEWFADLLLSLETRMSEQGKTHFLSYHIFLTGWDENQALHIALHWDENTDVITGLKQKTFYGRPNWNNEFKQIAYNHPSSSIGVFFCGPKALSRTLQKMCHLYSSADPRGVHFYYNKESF
T1 sequence (P13498 2-195 partner limits assumed): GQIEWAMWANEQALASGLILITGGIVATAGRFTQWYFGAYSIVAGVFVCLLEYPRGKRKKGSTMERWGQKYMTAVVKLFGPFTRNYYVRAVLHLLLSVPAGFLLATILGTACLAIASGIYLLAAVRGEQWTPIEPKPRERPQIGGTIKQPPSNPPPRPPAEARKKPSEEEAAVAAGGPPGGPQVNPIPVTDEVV
Source text: (§1) Plasmids are Purchased from Vectorbuilder. • for HEK-hNOX1 all necessary subunits are cloned accordingly: • pLV-CMV-hNOX1-puro (NM_007052.5) • pLV-CMV-hNOXO1-blas (NM_172168.3) • pLV-CMV-hp22phox-hygro (NM_000101.4) • pLV-CMV-hNOXA1-neo (NM_006647.2) • for HEK-hNOX3 • pLV-CMV-hNOX3-puro (NM_015718.3)
(§2) 3rd generation lentiviral particles are produced in HEK293 suspension cells by transient transfection of three helper and expression plasmids. Crucial lentivirus supernatants are harvested, clarified by filtration and concentrated by precipitation. Lentivirus titers are determined in transducing units in (TU/mL) by transduction of HT1080 cells and colony forming assay. Parental HEK293 cells, purchased from CLS GmbH, are transduced with replication-incompetent 3rd generation lentiviral particles (MOI 2) and expanded for at least 2 weeks before cryopreservation of tested lots. During cultivation, medium is changed three times per week and cells are sub-cultured at least once per week. Selection antibiotics are added according to the plasmids (1 μg/ml puromycin, 1.5 μg/ml blasticidin, 200 μg/ml G418 and 100 μg/ml hygromycin).
Evaluation of the NOX4 inhibitors on NOX3 activity is assessed in HEK293 cells stably overexpressing human NOX3 (hNOX3).
Cells are seeded in 384 well plates for 2 days. […] Cells are then stimulated with PMA at 0.1 μM to induce NOX3-dependent ROS production. […] Luminescence is measured with an PHERAstar multimode reader.

human NOX1 (hNOX1) = molecular target: T2, human NOX1 (hNOX1) (Homo sapiens, UniProt Q9Y5S8); assay: NOX1 inhibition assay (L-012), HEK293 cells stably overexpressing human NOX1; format: cell-based; details: HEK293-hNOX1, PMA stimulated
T2 construct: pLV-CMV-hNOX1-puro (NM_007052.5); host or cells: HEK293 (CLS GmbH), lentiviral transduction
T2 sequence (Q9Y5S8 1-564): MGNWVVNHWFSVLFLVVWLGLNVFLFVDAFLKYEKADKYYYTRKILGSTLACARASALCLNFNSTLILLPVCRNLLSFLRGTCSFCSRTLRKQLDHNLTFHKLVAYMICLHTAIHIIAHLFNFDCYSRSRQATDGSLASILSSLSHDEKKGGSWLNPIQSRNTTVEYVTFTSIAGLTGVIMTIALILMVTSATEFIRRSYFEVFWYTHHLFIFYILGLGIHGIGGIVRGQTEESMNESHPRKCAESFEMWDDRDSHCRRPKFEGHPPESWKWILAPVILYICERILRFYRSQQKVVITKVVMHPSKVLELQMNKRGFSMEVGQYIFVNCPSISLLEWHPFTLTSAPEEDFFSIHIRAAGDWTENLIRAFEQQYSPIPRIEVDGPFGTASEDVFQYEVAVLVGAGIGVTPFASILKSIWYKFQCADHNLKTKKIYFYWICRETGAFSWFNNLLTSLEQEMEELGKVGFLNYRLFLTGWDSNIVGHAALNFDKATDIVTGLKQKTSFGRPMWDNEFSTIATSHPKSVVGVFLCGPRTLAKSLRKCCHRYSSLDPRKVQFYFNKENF
T2 sequence (P13498 2-195 partner limits assumed): T1 sequence (P13498 2-195 partner limits assumed)
Source text: as §1, §2
Evaluation of the NOX4 inhibitors on NOX1 activity is assessed in HEK293 cells stably overexpressing human NOX1 (hNOX1).
Lastly, 8-amino-5-chloro-2,3-dihydro-7-phenyl-pyrido[3,4-d]pyridazine-1,4-dione sodium salt (L-012, CAS 143556-24-5) is added at 400 μM to all wells, and cells are incubated in an incubator for an additional 3 h. Afterwards luminescence is measured with a SpectraMax Paradigm Microplate Reader.

human NOX4 (hNOX4) = molecular target: T3, human NOX4 (hNOX4) (Homo sapiens, UniProt Q9NPH5); assay: cell-based
T3 sequence (Q9NPH5 1-578): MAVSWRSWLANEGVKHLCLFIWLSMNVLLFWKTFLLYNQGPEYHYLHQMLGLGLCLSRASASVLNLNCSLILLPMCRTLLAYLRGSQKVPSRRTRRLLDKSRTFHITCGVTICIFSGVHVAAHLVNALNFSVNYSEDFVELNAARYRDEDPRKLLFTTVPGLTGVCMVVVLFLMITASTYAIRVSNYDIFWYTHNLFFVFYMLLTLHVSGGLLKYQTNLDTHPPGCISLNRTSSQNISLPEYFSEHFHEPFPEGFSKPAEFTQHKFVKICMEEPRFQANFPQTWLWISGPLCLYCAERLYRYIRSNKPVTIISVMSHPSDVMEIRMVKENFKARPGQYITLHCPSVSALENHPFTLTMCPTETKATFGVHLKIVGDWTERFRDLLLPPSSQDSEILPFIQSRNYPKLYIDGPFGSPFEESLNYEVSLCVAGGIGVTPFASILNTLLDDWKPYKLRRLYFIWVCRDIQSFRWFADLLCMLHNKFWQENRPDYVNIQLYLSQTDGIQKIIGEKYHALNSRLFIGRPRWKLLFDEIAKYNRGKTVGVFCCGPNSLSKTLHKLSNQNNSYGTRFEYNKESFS
T3 sequence (P13498 2-195 partner limits assumed): T1 sequence (P13498 2-195 partner limits assumed)
Method: The synthetic gene phNOX4_DNA3_1_Zeo (Accession: AAF68973) is assembled from synthetic oligonucleotides and/or PCR products. The fragment is cloned into pcDNA3.1_Zeo_A011 using NheI and XhoI cloning sites. The plasmid DNA is purified from transformed bacteria and its concentration is determined by UV spectroscopy. The final construct is verified by sequencing. The plasmid is transfected via electroporation (Amaxa electroporation device) in combination with Nucleofector Kit V. Selection of NOX4 overexpressing genes is achieved using selection antibiotic Zeocin.
The inhibitory activity of the example compounds of the invention is determined using the following procedure:
Cells are cultured in the Dulbecco's Modified Eagle Medium (DMEM) media containing 4.5 g/L glucose supplemented with 10% fetal calf serum and 250 μg/ml Zeocin in an incubator at 37° C. with 5% CO2. For the assay, cells are seeded in 384 well plates.
After incubation Lumigen HyPerBlu™ is added and cells are incubated for additional 30 min at 24° C. in a humidified incubator. Next, luminescence is measured using an Envision Multimode Plate reader to determine levels of produced H2O2 in the wells.

SMILES | IC50 (human NOX3 (hNOX3)) | IC50 (human NOX1 (hNOX1)) | IC50 (human NOX4 (hNOX4))
O=c1c2scnc2nc(SCc2c(F)cc(F)cc2F)n1-c1cc(F)c(O)cc1F [Example 10, 6-(2,5-Difluoro-4-hydroxyphenyl)-5-((2,4,6-trifluorobenzyl)thio)thiazolo[4,5-d]pyrimidin-7(6H)-one] | 4 µM | 0.5 µM | 0.027 µM
Cc1cc(Cl)ccc1CSc1nc2ncsc2c(=O)n1-c1ccc(O)nc1 [Example 23] | > 100 µM | 48.1 µM | 0.096 µM
O=c1c2scnc2nc(SCc2ccc(C(F)(F)F)cc2)n1-c1ccc(O)nn1 [Example 66] | > 100 µM | > 100 µM | 0.137 µM
O=c1c2scnc2nc(SCc2ccc(Cl)cc2F)n1-c1cc(F)c(O)c(F)c1 [Example 2, 5-((4-Chloro-2-fluorobenzyl)thio)-6-(3,5-difluoro-4-hydroxyphenyl)thiazolo[4,5-d]-pyrimidin-7(6H)-one] | 4.1 µM | – | 0.039 µM
O=c1c2scnc2nc(SCc2ccc(C(F)(F)F)cc2F)n1-c1ccc(O)nc1 [Example 26] | 62.1 µM | 33 µM | 0.12 µM
O=c1c2scnc2nc(SCc2c(F)cc(F)cc2F)n1-c1cc(F)c(O)nc1F [Example 51, 6-(2,5-Difluoro-6-hydroxypyridin-3-yl)-5-((2,4,6-trifluorobenzyl)thio)thiazolo[4,5-d]-pyrimidin-7(6H)-one] | 6.4 µM | 3 µM | 0.051 µM
O=c1c2scnc2nc(SCc2c(F)cc(F)cc2Cl)n1-c1cnc(O)c(F)c1 [Example 41] | 32.3 µM | 9.8 µM | 0.06 µM
O=c1c2scnc2nc(SCc2c(F)cc(F)cc2F)n1-c1ccc(O)c(Cl)c1 [Example 16] | 59.1 µM | 15 µM | 0.367 µM
O=c1c2scnc2nc(SCc2c(F)cc(F)cc2F)n1-c1c(F)cc(O)cc1F [Example 13] | 16 µM | 3.2 µM | 0.061 µM
O=c1c2scnc2nc(SCc2ccc(C(F)(F)F)cc2)n1-c1cnc(O)nc1 [Example 60] | > 100 µM | > 100 µM | 0.237 µM
O=c1c2scnc2nc(SCc2c(F)cc(F)cc2F)n1-c1ccc(O)nn1 [Example 67] | > 100 µM | > 100 µM | 0.165 µM
O=c1c2scnc2nc(SCc2ccc(F)cc2)n1-c1ccc(O)nc1 [Example 30] | 98.1 µM | 37.8 µM | 0.539 µM
O=c1c2scnc2nc(SCc2ccc(Cl)cc2F)n1-c1cnc(O)c(F)c1 [Example 35] | 39.9 µM | > 100 µM | 0.033 µM
Cc1c(F)cccc1CSc1nc2ncsc2c(=O)n1-c1cnc(O)c(F)c1 [Example 40] | 39.2 µM | 32.9 µM | 0.059 µM
Cc1cc(F)cc(C)c1CSc1nc2ncsc2c(=O)n1-c1ccc(O)nn1 [Example 63] | > 100 µM | 43.4 µM | 0.126 µM
Cc1cc(F)ccc1CSc1nc2ncsc2c(=O)n1-c1ccc(O)nn1 [Example 68] | > 100 µM | 11 µM | 0.143 µM
Cc1cc(F)ccc1CSc1nc2ncsc2c(=O)n1-c1cc(F)c(O)c(F)c1 [Example 9] | 3.7 µM | 1.9 µM | 0.029 µM
O=c1c2scnc2nc(SCc2c(F)cc(F)cc2F)n1-c1cnc(O)c(F)c1 [Example 31, 6-(5-Fluoro-6-hydroxypyridin-3-yl)-5-((2,4,6-trifluorobenzyl)thio)thiazolo[4,5-d]-pyrimidin-7(6H)-one] | > 100 µM | 22.9 µM | 0.06 µM
O=c1c2scnc2nc(SCc2ccc(C(F)(F)F)cc2F)n1-c1cnc(O)nc1 [Example 57] | > 100 µM | – | 0.124 µM
Cc1cc(Cl)ccc1CSc1nc2ncsc2c(=O)n1-c1ccc(O)nn1 [Example 62] | > 100 µM | > 100 µM | 0.127 µM
O=c1c2scnc2nc(SCc2c(F)cc(F)cc2F)n1-c1ncc(O)cn1 [Example 21, 6-(5-Hydroxypyrimidin-2-yl)-5-((2,4,6-trifluorobenzyl)thio)thiazolo[4,5-d]pyrimidin-7(6H)-one] | > 100 µM | > 100 µM | 0.174 µM
O=c1c2scnc2nc(SCc2ccc(C(F)(F)F)cc2Cl)n1-c1cnc(O)c(F)c1 [Example 46] | 56.4 µM | 48.4 µM | 0.13 µM
Cc1cc(Cl)ccc1CSc1nc2ncsc2c(=O)n1-c1cc(F)c(O)c(F)c1 [Example 3] | > 100 µM | 1.7 µM | 0.073 µM
O=c1c2scnc2nc(SCc2c(F)cc(F)cc2F)n1-c1ccc(O)c(F)c1F [Example 12] | 7.6 µM | 2.9 µM | 0.051 µM
Cc1cc(Cl)ccc1CSc1nc2ncsc2c(=O)n1-c1cnc(O)nc1 [Example 54] | 49.4 µM | – | 0.111 µM
O=c1c2scnc2nc(SCc2c(F)cc(F)cc2F)n1-c1ccc(O)c(F)c1 [Example 11] | 16.3 µM | 0.9 µM | 0.042 µM
N#Cc1cc(-n2c(SCc3c(F)cc(F)cc3F)nc3ncsc3c2=O)cnc1O [Example 47, 2-Hydroxy-5-(7-oxo-5-((2,4,6-trifluorobenzyl)thio)thiazolo[4,5-d]pyrimidin-6(7H)-yl)-nicotinonitrile] | 18.8 µM | 4.9 µM | 0.426 µM
Cc1cc(F)cc(C)c1CSc1nc2ncsc2c(=O)n1-c1cc(F)c(O)c(F)c1 [Example 4] | 4.1 µM | – | 0.091 µM
O=c1c2scnc2nc(SCc2c(F)cc(F)cc2F)n1-c1ccc(O)cn1 [Example 19] | > 100 µM | 16.9 µM | –
